{
  "source": "patent US20240058459A1",
  "about": "(Ashvattha Therapeutics, Inc., priority 2019, published 2024)",
  "key": {"[1]": {"biological_target": "VEGFR2 (Homo sapiens (Human), UniProt P35968)", "sequence (P35968 20-1356)": "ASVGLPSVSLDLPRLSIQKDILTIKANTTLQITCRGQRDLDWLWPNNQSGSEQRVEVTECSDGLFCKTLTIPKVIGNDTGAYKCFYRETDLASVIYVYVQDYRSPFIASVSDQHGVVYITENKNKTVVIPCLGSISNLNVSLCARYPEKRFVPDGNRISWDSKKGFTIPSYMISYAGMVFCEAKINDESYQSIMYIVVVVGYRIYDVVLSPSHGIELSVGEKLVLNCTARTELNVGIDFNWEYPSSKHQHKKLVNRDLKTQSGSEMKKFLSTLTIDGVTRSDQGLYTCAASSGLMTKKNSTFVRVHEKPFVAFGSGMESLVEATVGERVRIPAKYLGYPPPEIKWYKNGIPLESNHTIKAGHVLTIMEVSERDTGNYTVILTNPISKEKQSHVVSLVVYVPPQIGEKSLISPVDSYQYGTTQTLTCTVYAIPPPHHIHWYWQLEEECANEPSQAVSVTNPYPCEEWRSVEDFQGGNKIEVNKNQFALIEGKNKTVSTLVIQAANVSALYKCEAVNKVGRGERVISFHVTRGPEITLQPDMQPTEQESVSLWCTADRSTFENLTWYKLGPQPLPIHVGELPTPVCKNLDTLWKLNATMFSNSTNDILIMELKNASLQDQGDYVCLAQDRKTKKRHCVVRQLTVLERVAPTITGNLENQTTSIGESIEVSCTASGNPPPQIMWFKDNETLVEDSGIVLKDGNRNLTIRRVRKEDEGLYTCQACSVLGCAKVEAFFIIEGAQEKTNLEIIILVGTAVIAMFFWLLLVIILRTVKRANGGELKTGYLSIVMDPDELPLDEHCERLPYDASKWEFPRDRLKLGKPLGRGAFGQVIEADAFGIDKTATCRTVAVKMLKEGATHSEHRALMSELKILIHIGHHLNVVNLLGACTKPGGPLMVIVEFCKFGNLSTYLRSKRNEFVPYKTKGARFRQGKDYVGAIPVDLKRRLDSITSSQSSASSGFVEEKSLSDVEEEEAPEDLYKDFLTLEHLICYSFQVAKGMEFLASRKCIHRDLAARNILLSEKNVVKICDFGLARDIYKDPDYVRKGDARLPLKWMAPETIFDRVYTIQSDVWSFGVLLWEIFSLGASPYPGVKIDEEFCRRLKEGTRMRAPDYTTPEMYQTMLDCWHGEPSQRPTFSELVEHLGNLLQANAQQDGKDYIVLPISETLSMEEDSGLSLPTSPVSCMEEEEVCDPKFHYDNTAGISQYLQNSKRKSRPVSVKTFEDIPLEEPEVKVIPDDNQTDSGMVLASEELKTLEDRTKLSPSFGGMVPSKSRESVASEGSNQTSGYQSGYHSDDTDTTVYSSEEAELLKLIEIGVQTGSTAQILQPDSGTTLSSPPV", "test": "In vitro kinase binding assay (VEGFR2)", "protocol": "All reactions performed in polypropylene 384-well plate. Each was a final volume of 0.02 ml."}, "[2]": {"test_system": "choroidal neovascular (CNV) lesions", "test": "Localization and persistence in CNV lesions after systemic administration, laser-induced CNV mouse model", "assay_type": "in vivo, C57BL/6 mice", "protocol": "Two studies were conducted in C57BL/6 mice (n=5/group) administered intravenously 100 μL of D-ICG or vehicle control. In the first study, mice were administered D-ICG or vehicle control at 1, 3, 7, or 14 days post-laser and eyes were analyzed by optical coherence tomography (OCT) with ICG imaging at 4 or 24 hr post-dose. Flat-mounts of the sclera-choroid/retinal pigment epithelial (RPE) complexes were stained by fluorescently tagged isolectin and IBA-1.\nThe second study evaluated the localization and persistence of dendrimer conjugates in the CNV lesion. In the second study, mice were administered intravenously 100 μL of D-ICG and 100 μL of D-TRITC (1 hr after D-ICG) or vehicle control at 24 hr post-laser. Mice analyzed and sacrificed at 4, 7, 14, 21, and 28 days post-dose (n=5/group). For control group, free ICG (1.23 mg/mL), 100 μL, IV dosed 24 hr post-laser and mice analyzed and sacrificed at 2, 4, 7, and 14 days post-dose (n=5/group). Eyes analyzed by optical coherence tomography (OCT) with ICG imaging. Flat-mounts of the sclera-choroid/retinal pigment epithelial (RPE) complexes were stained by fluorescently tagged IBA-1 alone."}, "[3]": {"test": "Toxicokinetics in rats", "assay_type": "in vivo, Sprague-Dawley rats", "conditions": "D-4517 12 mg/kg daily IP, sunitinib 30 mg/kg daily oral", "description": "Toxicokinetic data was collected in rats. […] Blood samples were collected, and plasma drug concentrations were determined. Noncompartmental toxicokinetic parameters were estimated."}, "[4]": {"biological_target": "TIE II (Homo sapiens (Human), UniProt Q02763)", "sequence (Q02763 23-1124)": "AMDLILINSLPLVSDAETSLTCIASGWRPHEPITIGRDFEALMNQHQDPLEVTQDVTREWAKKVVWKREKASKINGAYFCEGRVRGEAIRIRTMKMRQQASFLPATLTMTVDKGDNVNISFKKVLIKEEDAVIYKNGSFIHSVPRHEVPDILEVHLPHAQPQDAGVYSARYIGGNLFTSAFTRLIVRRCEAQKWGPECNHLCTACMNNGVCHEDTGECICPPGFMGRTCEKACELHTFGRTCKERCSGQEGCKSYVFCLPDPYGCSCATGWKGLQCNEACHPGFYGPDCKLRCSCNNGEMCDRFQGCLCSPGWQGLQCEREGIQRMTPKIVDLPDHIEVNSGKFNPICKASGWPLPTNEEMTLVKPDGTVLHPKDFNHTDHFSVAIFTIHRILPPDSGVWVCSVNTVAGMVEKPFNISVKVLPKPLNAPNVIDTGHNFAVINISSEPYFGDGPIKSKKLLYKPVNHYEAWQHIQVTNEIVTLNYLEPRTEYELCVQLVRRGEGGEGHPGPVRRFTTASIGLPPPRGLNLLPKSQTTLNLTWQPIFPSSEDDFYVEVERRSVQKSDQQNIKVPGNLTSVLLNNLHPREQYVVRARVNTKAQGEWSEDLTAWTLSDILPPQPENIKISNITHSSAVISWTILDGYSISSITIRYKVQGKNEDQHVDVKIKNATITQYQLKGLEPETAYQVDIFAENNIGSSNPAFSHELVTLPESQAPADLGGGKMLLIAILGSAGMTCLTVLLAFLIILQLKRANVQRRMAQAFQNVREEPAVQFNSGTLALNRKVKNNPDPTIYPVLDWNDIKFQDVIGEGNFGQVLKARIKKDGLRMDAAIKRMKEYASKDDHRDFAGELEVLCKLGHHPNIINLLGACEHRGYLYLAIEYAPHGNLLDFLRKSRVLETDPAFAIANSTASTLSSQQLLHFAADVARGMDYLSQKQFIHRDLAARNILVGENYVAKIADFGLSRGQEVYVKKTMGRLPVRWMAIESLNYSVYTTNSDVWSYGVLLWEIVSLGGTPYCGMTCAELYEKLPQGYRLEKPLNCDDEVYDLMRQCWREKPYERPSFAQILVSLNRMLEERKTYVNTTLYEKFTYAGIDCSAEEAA", "test": "TIE II inhibition, dissociation constant", "assay_type": "binding"}, "[5]": {"test_system": "choroidal neovascularization (CNV)", "test": "Laser-induced CNV mouse model, single IP dose, duration of efficacy", "assay_type": "in vivo, C57BL/6 mice", "conditions": "single IP dose (aflibercept IVT)"}, "[6]": {"test_system": "choroidal neovascularization (CNV)", "test": "Laser-induced CNV mouse model, single IV dose", "conditions": "single dose 24 hr after laser (IV; aflibercept IVT 40 μg); CNV area 7 days after laser", "description": "As a positive control group, a cohort of mice were administered aflibercept (EYLEA®) intravitreally (IVT; 1 μL, 40 μg). The CNV area was measured 7 days after laser treatment by both fluorescein angiography and flat-mounts of the sclera-choroid/RPE complexes stained with isolectin IB4."}, "[7]": {"conditions": "rat, in vivo, 40.21 mg/kg"}},
  "data": [
    {"compound": "Cc1[nH]c(/C=C2\\C(=O)Nc3ccc(F)cc32)c(C)c1C(=O)NCCNC(=O)CCOCCOCCOCCN=[N+]=[N-]", "values": [
      {"measurement": "Kd", "setting": "[1]", "value": 1, "unit": "nM"}
    ]},
    {"compound": "CC1(C)C(/C=C/C=C/C=C/C=C2\\N(CCCCS(=O)(=O)[O-])c3ccc4ccccc4c3C2(C)C)=[N+](CCCCS(=O)(=O)[O-])c2ccc3ccccc3c21.[Na+]", "note": "[free ICG, indocyanine green]", "values": [
      {"measurement": "time at which no longer present in the lesions", "setting": "[2]; free ICG control groups, IV 24 hr post-laser", "value": "7-14 days post-laser"},
      {"measurement": "uptake/distribution in CNV lesions", "setting": "[2]; systemic administration, within 24 hr after dosing", "value": "distributes non-specifically"}
    ]},
    {"compound": "CCN(CC)CCNC(=O)c1c(C)[nH]c(/C=C2\\C(=O)Nc3ccc(F)cc32)c1C", "note": "[free sunitinib, sunitinib]", "values": [
      {"measurement": "AUC estimates, sunitinib compared to D-4517", "setting": "[3]", "value": "higher"}
    ]},
    {"compound": "COC(=O)Nc1nc2ccc(Oc3ccc(NC(=O)Nc4cc(C(F)(F)F)ccc4OCCCCN=[N+]=[N-])cc3)cc2[nH]1", "note": "[Structure V]", "values": [
      {"measurement": "Kd", "setting": "[4]", "value": "~8.8", "unit": "nM"}
    ]},
    {"compound": "aflibercept", "values": [
      {"measurement": "CNV area", "setting": "[5]; day 7 post-treatment", "value": "Significant reduction in the CNV area"},
      {"measurement": "CNV area", "setting": "[5]; day 14 post-treatment", "value": "not sustained"},
      {"measurement": "reduction in CNV area compared with vehicle control", "setting": "[6]", "value": "Statistically significant reductions in the CNV area"}
    ]},
    {"compound": "CCN(CC)CCNC(=O)c1c(C)[nH]c(/C=C2\\C(=O)Nc3ccc(F)cc32)c1C", "note": "[Sunitinib Malate, reference compound]", "values": [
      {"measurement": "overall tolerability", "setting": "[7]", "value": "various clinical and pathological changes in addition to mortality in female rats"}
    ]}
  ]
}
